Reference: patent US4217268A, “Synthesis of peptides” (priority 1978, dated 1980)
Bridge positions count the residues as written; N and C are the ends. Peptide text beside a SMILES is read from it.

Test: Calcitonin potency assay of the purified product (MRC units per mg)
Conditions: purified freeze-dried product of Example 1

Question: For `CC(C)C[C@H](NC(=O)[C@H](CCCCN)NC(=O)CNC(=O)[C@H](CC(C)C)NC(=O)[C@@H](NC(=O)[C@@H]1CSSC[C@H](N)C(=O)N[C@@H](CC(N)=O)C(=O)N[C@@H](CC(C)C)C(=O)N[C@@H](CO)C(=O)N[C@@H]([C@@H](C)O)C(=O)N1)C(C)C)C(=O)N[C@@H](CO)C(=O)N[C@@H](CCC(N)=O)C(=O)N[C@@H](CCC(=O)O)C(=O)N[C@@H](CC(C)C)C(=O)N[C@@H](Cc1c[nH]cn1)C(=O)N[C@@H](CCCCN)C(=O)N[C@@H](CC(C)C)C(=O)N[C@@H](CCC(N)=O)C(=O)N[C@H](C(=O)N[C@@H](Cc1ccc(O)cc1)C(=O)N1CCC[C@H]1C(=O)N[C@@H](CCCNC(=N)N)C(=O)N[C@H](C(=O)N[C@@H](CC(N)=O)C(=O)N[C@H](C(=O)NCC(=O)N[C@@H](CO)C(=O)NCC(=O)N[C@H](C(=O)N1CCC[C@H]1C(N)=O)[C@@H](C)O)[C@@H](C)O)[C@@H](C)O)[C@@H](C)O` [des-Ser^2-SCT, des-ser^2 -salmon calcitonin] (H-CNLSTCVLGKLSQELHKLQTYPRTNTGSGTP-NH2; disulfide 1-6), which “biological potency (assayed MRC units per mg)” value is on record?
Answer: 5600 MRC units per mg
